Organism: Rattus norvegicus
Test: DrugMatrix - Regimen: Daily Repeat
Type: toxicity, organism-based, Sprague-Dawley
Set-up: regimen Daily Repeat, gender Male, age 6-8 weeks
Settings: in vivo, po, route oral GAVAGE, vehicle 100 % SALINE; for ABSOLUTE BASOPHIL / ABSOLUTE EOSINOPHIL / ABSOLUTE LYMPHOCYTE / ABSOLUTE MONOCYTE / ABSOLUTE SEGMENTED NEUTROPHIL / BASOPHIL / EOSINOPHIL / ERYTHROCYTE COUNT / HEMATOCRIT / HEMOGLOBIN / LEUKOCYTE COUNT / LYMPHOCYTE / MEAN CORPUSCULAR HEMOGLOBIN / MEAN CORPUSCULAR HEMOGLOBIN CONCENTRATION / MEAN CORPUSCULAR VOLUME / MONOCYTE / NEUTROPHIL / NUCLEATED RED BLOOD CELLS / PLATELET COUNT: tissue Blood; for ALANINE AMINOTRANSFERASE / ALBUMIN / ALKALINE PHOSPHATASE / ASPARTATE AMINOTRANSFERASE / BLOOD UREA NITROGEN / CARBON DIOXIDE / CHLORIDE / CHOLESTEROL / CREATINE PHOSPHOKINASE / CREATININE / GLUCOSE / LACTATE DEHYDROGENASE / LIPASE / PHOSPHORUS / POTASSIUM / SODIUM / TOTAL BILIRUBIN / TOTAL PROTEIN / URIC ACID: tissue Plasma
[1] = 10 mg/kg, […], dose level Low, time 7 day
[2] = 30 mg/kg, 72 h, dose level High, time 3 day
[3] = 30 mg/kg, […], dose level High, time 7 day

O=[As][O-].[Na+] [SODIUM ARSENITE]
ABSOLUTE BASOPHIL [1]: 0 CELLS/uL
ABSOLUTE EOSINOPHIL [1]: 0 CELLS/uL
ABSOLUTE LYMPHOCYTE [1]: 8882.33 CELLS/uL
ABSOLUTE MONOCYTE [1]: 292.83 CELLS/uL
ABSOLUTE SEGMENTED NEUTROPHIL [1]: 1158.17 CELLS/uL
BASOPHIL [1]: 0%
EOSINOPHIL [1]: 0%
ERYTHROCYTE COUNT [1]: 5.16 x10E6/uL
HEMATOCRIT [1]: 33.38%
HEMOGLOBIN [1]: 13.23 G/DL
LEUKOCYTE COUNT [1]: 10.33 x10E3/uL
LYMPHOCYTE [1]: 86.17%
MEAN CORPUSCULAR HEMOGLOBIN [1]: 25.68 pg
MEAN CORPUSCULAR HEMOGLOBIN CONCENTRATION [1]: 39.65 G/DL
MEAN CORPUSCULAR VOLUME [1]: 64.67 fL
MONOCYTE [1]: 2.83%
NEUTROPHIL [1]: 11%
NUCLEATED RED BLOOD CELLS [1]: 0 /100WBC
PLATELET COUNT [1]: 1191.67 x10E3/uL
ALANINE AMINOTRANSFERASE [1]: 43 u/L
ALBUMIN [1]: 4.45 G/DL
ALKALINE PHOSPHATASE [1]: 255.83 u/L
ASPARTATE AMINOTRANSFERASE [1]: 72.83 u/L
BLOOD UREA NITROGEN [1]: 13 mg/dL
CARBON DIOXIDE [1]: 29.83 mmol/L
CHLORIDE [1]: 98.83 MEQ/L
CHOLESTEROL [1]: 69.17 mg/dL
CREATINE PHOSPHOKINASE [1]: 248.67 u/L
CREATININE [1]: 0.18 mg/dL
GLUCOSE [1]: 139.17 mg/dL
LACTATE DEHYDROGENASE [1]: 91.83 u/L
LIPASE [1]: 10.5 u/L
PHOSPHORUS [1]: 11.75 mg/dL
POTASSIUM [1]: 6.25 MEQ/L
SODIUM [1]: 143.22 MEQ/L
TOTAL BILIRUBIN [1]: 0.15 mg/dL
TOTAL PROTEIN [1]: 5.95 G/DL
URIC ACID [1]: 0.93 mg/dL
ABSOLUTE BASOPHIL [2]: 0 CELLS/uL
ABSOLUTE EOSINOPHIL [2]: 24.17 CELLS/uL
ABSOLUTE LYMPHOCYTE [2]: 11880.83 CELLS/uL
ABSOLUTE MONOCYTE [2]: 220.67 CELLS/uL
ABSOLUTE SEGMENTED NEUTROPHIL [2]: 724.33 CELLS/uL
BASOPHIL [2]: 0%
EOSINOPHIL [2]: 0.17%
ERYTHROCYTE COUNT [2]: 5.56 x10E6/uL
HEMATOCRIT [2]: 36.35%
HEMOGLOBIN [2]: 12.9 G/DL
LEUKOCYTE COUNT [2]: 12.85 x10E3/uL
LYMPHOCYTE [2]: 92.17%
MEAN CORPUSCULAR HEMOGLOBIN [2]: 23.27 pg
MEAN CORPUSCULAR HEMOGLOBIN CONCENTRATION [2]: 35.48 G/DL
MEAN CORPUSCULAR VOLUME [2]: 65.6 fL
MONOCYTE [2]: 1.83%
NEUTROPHIL [2]: 5.83%
NUCLEATED RED BLOOD CELLS [2]: 0 /100WBC
PLATELET COUNT [2]: 1116 x10E3/uL
ALANINE AMINOTRANSFERASE [2]: 34.67 u/L
ALBUMIN [2]: 3.6 G/DL
ALKALINE PHOSPHATASE [2]: 172.83 u/L
ASPARTATE AMINOTRANSFERASE [2]: 76.5 u/L
BLOOD UREA NITROGEN [2]: 11.33 mg/dL
CARBON DIOXIDE [2]: 26.83 mmol/L
CHLORIDE [2]: 102.5 MEQ/L
CHOLESTEROL [2]: 75 mg/dL
CREATINE PHOSPHOKINASE [2]: 194.17 u/L
CREATININE [2]: 0.16 mg/dL
GLUCOSE [2]: 125.67 mg/dL
LACTATE DEHYDROGENASE [2]: 103.33 u/L
LIPASE [2]: 11.83 u/L
PHOSPHORUS [2]: 9.52 mg/dL
POTASSIUM [2]: 5.42 MEQ/L
SODIUM [2]: 143 MEQ/L
TOTAL BILIRUBIN [2]: 0.18 mg/dL
TOTAL PROTEIN [2]: 5.17 G/DL
URIC ACID [2]: 0.68 mg/dL
ABSOLUTE BASOPHIL [3]: 0 CELLS/uL
ABSOLUTE EOSINOPHIL [3]: 81.83 CELLS/uL
ABSOLUTE LYMPHOCYTE [3]: 12174.33 CELLS/uL
ABSOLUTE MONOCYTE [3]: 445.83 CELLS/uL
ABSOLUTE SEGMENTED NEUTROPHIL [3]: 2681.33 CELLS/uL
BASOPHIL [3]: 0%
EOSINOPHIL [3]: 0.5%
ERYTHROCYTE COUNT [3]: 5.27 x10E6/uL
HEMATOCRIT [3]: 32.5%
HEMOGLOBIN [3]: 12.83 G/DL
LEUKOCYTE COUNT [3]: 15.38 x10E3/uL
LYMPHOCYTE [3]: 81%
MEAN CORPUSCULAR HEMOGLOBIN [3]: 24.38 pg
MEAN CORPUSCULAR HEMOGLOBIN CONCENTRATION [3]: 39.47 G/DL
MEAN CORPUSCULAR VOLUME [3]: 61.75 fL
MONOCYTE [3]: 2.67%
NEUTROPHIL [3]: 15.83%
NUCLEATED RED BLOOD CELLS [3]: 0 /100WBC
PLATELET COUNT [3]: 966.33 x10E3/uL
ALANINE AMINOTRANSFERASE [3]: 39.67 u/L
ALBUMIN [3]: 4.02 G/DL
ALKALINE PHOSPHATASE [3]: 141.83 u/L
ASPARTATE AMINOTRANSFERASE [3]: 90 u/L
BLOOD UREA NITROGEN [3]: 16 mg/dL
CARBON DIOXIDE [3]: 27 mmol/L
CHLORIDE [3]: 100.17 MEQ/L
CHOLESTEROL [3]: 65.83 mg/dL
CREATINE PHOSPHOKINASE [3]: 152.83 u/L
CREATININE [3]: 0.14 mg/dL
GLUCOSE [3]: 126.83 mg/dL
LACTATE DEHYDROGENASE [3]: 98.33 u/L
LIPASE [3]: 9.83 u/L
PHOSPHORUS [3]: 9.15 mg/dL
POTASSIUM [3]: 5.46 MEQ/L
SODIUM [3]: 142.78 MEQ/L
TOTAL BILIRUBIN [3]: 0.13 mg/dL
TOTAL PROTEIN [3]: 5.38 G/DL
URIC ACID [3]: 0.55 mg/dL

From ChEMBL document CHEMBL3885881, “DrugMatrix”
